The values that follow come from patent publication US12605464B2, “Cyclohexane lipidoids for nucleic acid transfection and use thereof” (USTAV ORGANICKE CHEMIE A BIOCHEMIE AV CR V.V.I., priority 2021, dated 2026).

In one data set the test system is HEK293T. Nature of the data set: Cellular toxicity of LNPs, CellTiterGlo 2.0 cell viability assay. The conditions noted are these: 100 μM total lipid components, 24 hours, normalized to non-transfected cells. It counts as cell-based, human. On the procedure: (§1) A human cell line derived from embryonic kidney cells expressing SV40 large T antigen (HEK293T), and human hepatocyte carcinoma cell line (HepG2) were cultured in 96-well plates (5×10^4 cells in […] of culture medium per well) in Dulbecco's modified medium (DMEM) supplemented with 10% foetal bovine serum (FBS) at 37° C. in 5% CO2. Cells were transfected with 2 μl of LNPs B07-B12 generated in triplicates in Example 20 (the final total concentration of all lipid components in the well was 20 μM) or 10 μl of LNPs (the final total concentration of all lipid components in the well was 100 μM) and subsequently incubated for 24 hours. The cytotoxicity of LNPs was analyzed in a CellTiterGlo 2.0 cell viability assay (Promega, USA). Cell viability was normalized to non-transfected cells (control).

Another data set concerns HepG2. The description is as above. It counts as cell-based, human. The settings on record: HepG2, 100 μM total lipid components, 24 hours, normalized to non-transfected cells. The method, then:
as §1

`CCCCCCCCCCCCN(CCCCCCCCCCCC)CCCNC(=O)c1cc(C(=O)NCCCN(CCCCCCCCCCCC)CCCCCCCCCCCC)cc(C(=O)NCCCN(CCCCCCCCCCCC)CCCCCCCCCCCC)c1` [TT3]: the “Cytotoxicity expressed as cell viability (%)” value in the data set with HEK293T amounted to 27%; in the data set with HepG2, 15%.
